Experimental data as given in PubChem BioAssay (NCI).
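Exposure lasted 48 hours, with cells grown in 96-well plates and compounds tested at five concentrations. TGI: total growth inhibition.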

Columns and labels:
Assay in all cases: DTP human tumour cell line panel, 48 h
M14 melanoma = system: M14 melanoma
ACHN renal = system: ACHN renal
NCI-H522 lung = system: NCI-H522 lung
IGROV1 ovarian = system: IGROV1 ovarian
T-47D breast = system: T-47D breast
SK-OV-3 ovarian = system: SK-OV-3 ovarian
NCI/ADR-RES ovarian = system: NCI/ADR-RES ovarian
TK-10 renal = system: TK-10 renal
MDA-MB-231 breast = system: MDA-MB-231 breast
HCC-2998 colon = system: HCC-2998 colon
MDA-MB-435 = system: MDA-MB-435
CAKI-1 renal = system: CAKI-1 renal
MDA-N = system: MDA-N
EKVX NSCLC = system: EKVX NSCLC
HOP-18 NSCLC = system: HOP-18 NSCLC
DLD-1 colon = system: DLD-1 colon
M19-MEL melanoma = system: M19-MEL melanoma
DMS 114 small cell lung = system: DMS 114 small cell lung
DMS 273 small cell lung = system: DMS 273 small cell lung
KM20L2 colon = system: KM20L2 colon

Structure (SMILES) | TGI (M14 melanoma) [µM] | TGI (ACHN renal) [µM] | TGI (NCI-H522 lung) [µM] | TGI (IGROV1 ovarian) [µM] | TGI (T-47D breast) [µM] | TGI (SK-OV-3 ovarian) [µM] | TGI (NCI/ADR-RES ovarian) [µM] | TGI (TK-10 renal) [µM] | TGI (MDA-MB-231 breast) [µM] | TGI (HCC-2998 colon) [µM] | TGI (MDA-MB-435) [µM] | TGI (CAKI-1 renal) [µM] | TGI (MDA-N) [µM] | TGI (EKVX NSCLC) [µM] | TGI (HOP-18 NSCLC) [µM] | TGI (DLD-1 colon) [µM] | TGI (M19-MEL melanoma) [µM] | TGI (DMS 114 small cell lung) [µM] | TGI (DMS 273 small cell lung) [µM] | TGI (KM20L2 colon) [µM]
CC(=O)O/C(=C1\C[C@H]2[C@@H]3CC=C4C[C@@H](OC(C)=O)CC[C@]4(C)[C@H]3CC[C@]2(C)C1=O)C(F)(F)F | 15.2 | 48 | 8.99 | 19.8 | 21.2 | 44.5 | 46.6 | 32.4 | 27.6 | 19 | 16.4 | 24.3 | 14.9 | 37.9 | – | – | – | – | – | –
COc1cc(N=Nc2cccc(S(=O)(=O)O)c2)ccc1N=Nc1ccc(/C=C/c2ccc(-n3on3-c3ccc(/C=C/c4ccc(N=Nc5ccc(N=Nc6cccc(S(=O)(=O)O)c6)cc5OC)cc4S(=O)(=O)O)c(S(=O)(=O)O)c3)cc2S(=O)(=O)O)c(S(=O)(=O)O)c1 | – | – | > 100 | > 100 | – | > 100 | > 100 | – | – | > 100 | – | – | – | > 100 | > 100 | > 100 | > 100 | > 100 | > 100 | > 100
N#CC(OC1OC(COC2OC(CO)C(O)C(O)C2O)C(O)C(O)C1O)c1ccccc1 (configuration not stated) | – | – | > 225 | > 225 | – | > 225 | > 225 | – | – | > 225 | – | > 225 | – | > 225 | > 225 | > 225 | > 225 | > 225 | > 225 | > 225
CN1C(=O)CSC1=S | > 100 | > 100 | > 100 | > 100 | – | > 100 | – | > 100 | – | – | – | > 100 | – | – | > 100 | > 100 | > 100 | > 100 | > 100 | > 100
COc1cccc2cc(C(=O)O)c(=O)oc12 | > 100 | > 100 | > 100 | > 100 | > 100 | – | > 100 | > 100 | > 100 | > 100 | > 100 | > 100 | > 100 | > 100 | – | – | – | – | – | –
O=C(O)C1C2C=CC(C2)C1c1ccccc1 (configuration not stated) | > 100 | > 100 | – | – | > 100 | > 100 | > 100 | > 100 | > 100 | > 100 | > 100 | > 100 | > 100 | > 100 | – | – | – | – | – | –
